# Assays:
# [1] = target: T1, APH(3’)-IIb WT (Pseudomonas aeruginosa, UniProt Q9HWR2); assay: ITC; format: binding
# T1 sequence (Q9HWR2 1-268): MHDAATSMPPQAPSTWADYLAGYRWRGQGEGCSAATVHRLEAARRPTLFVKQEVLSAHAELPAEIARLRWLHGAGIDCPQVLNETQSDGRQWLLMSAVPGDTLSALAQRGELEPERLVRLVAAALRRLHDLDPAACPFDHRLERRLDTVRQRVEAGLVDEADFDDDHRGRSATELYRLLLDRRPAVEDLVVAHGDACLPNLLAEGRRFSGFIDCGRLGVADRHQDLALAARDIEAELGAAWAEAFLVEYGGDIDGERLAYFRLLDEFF
# [2] = target: T1, APH(3’)-IIb WT; assay: biochemical
# [3] = target: T2, APH(3’)-IIb WT (Pseudomonas aeruginosa, UniProt Q9HWR2, M95L); assay: PK/LDH coupled assay; format: biochemical; conditions: 100 µM MgATP, Tris buffer pH 7.5, 25 °C
# T2 sequence (Q9HWR2 1-268 M95L): T1 sequence (Q9HWR2 1-268)
SMILES,Kd [1] [nM],Kd [2] [nM],Km [3] [µM]
Nc1ncnc2c1ncn2[C@@H]1O[C@H](COP(=O)(O)OP(=O)(O)O)[C@@H](O)[C@H]1O [ADP],4100 ± 500,–,–
Nc1ncnc2c1ncn2[C@@H]1O[C@H](COP(=O)(O)OP(=O)(O)OP(=O)(O)O)[C@@H](O)[C@H]1O [ATP],10000 ± 700,–,–
CN[C@@H]1[C@@H](O)[C@@H](O[C@@H]2[C@@H](O)[C@H](O[C@H]3O[C@H]([C@@H](C)O)[C@@H](O)[C@H](O)[C@H]3N)[C@@H](N)C[C@H]2N)OC[C@]1(C)O [Geneticin],–,1590 ± 310,–
NCC[C@H](O)C(=O)N[C@@H]1C[C@H](N)[C@@H](O[C@H]2O[C@H](CN)[C@@H](O)[C@H](O)[C@H]2O)[C@H](O)[C@H]1O[C@H]1O[C@H](CO)[C@@H](O)[C@H](N)[C@H]1O [amikacin],177000 ± 22000,–,54.5 ± 21.5
CNC(C)[C@@H]1CC[C@@H](N)[C@@H](O[C@H]2[C@H](O)[C@@H](O[C@H]3OC[C@](C)(O)[C@H](NC)[C@H]3O)[C@H](N)C[C@@H]2N)O1 (stereo partly shown) [gentamicin],–,59 ± 5,–
NC[C@H]1O[C@H](O[C@H]2[C@H](O)[C@@H](O[C@H]3O[C@H](CO)[C@@H](O)[C@H](N)[C@H]3O)[C@H](N)C[C@@H]2N)[C@H](O)[C@@H](O)[C@@H]1O [kanamycin A],–,–,0.17 ± 0.06
NC[C@H]1O[C@H](O[C@H]2[C@H](O)[C@@H](O[C@H]3O[C@H](CO)[C@@H](O)[C@H](N)[C@H]3O)[C@H](N)C[C@@H]2N)[C@H](N)[C@@H](O)[C@@H]1O [kanamycin B],2 ± 1,–,0.05 ± 0.03
NC[C@@H]1O[C@H](O[C@H]2[C@@H](O)[C@H](O[C@@H]3[C@@H](O)[C@H](N)C[C@H](N)[C@H]3O[C@H]3O[C@H](CN)[C@@H](O)[C@H](O)[C@H]3N)O[C@@H]2CO)[C@H](N)[C@@H](O)[C@@H]1O [neomycin],12 ± 2,–,0.07 ± 0.06
NC[C@@H]1O[C@H](O[C@H]2[C@@H](O)[C@H](O[C@@H]3[C@@H](O)[C@H](N)C[C@H](N)[C@H]3O[C@H]3O[C@H](CO)[C@@H](O)[C@H](O)[C@H]3N)O[C@@H]2CO)[C@H](N)[C@@H](O)[C@@H]1O [paromomycin],173 ± 8,–,0.53 ± 0.21
NC[C@H]1O[C@H](O[C@H]2[C@H](O[C@@H]3O[C@H](CO)[C@@H](O)[C@H]3O)[C@@H](O)[C@H](N)C[C@@H]2N)[C@H](N)[C@@H](O)[C@@H]1O [ribostamycin],10 ± 1,–,0.21 ± 0.17
NC[C@H]1O[C@H](O[C@H]2[C@H](O)[C@@H](O[C@H]3O[C@H](CO)[C@@H](O)[C@H](N)[C@H]3O)[C@H](N)C[C@@H]2N)[C@H](N)C[C@@H]1O [tobramycin],23,–,–
